Earlier results, collected in article PMC3925743 (Journal of controlled release : official journal of the …, 2013).

Tested on: prostate cancer LNCaP cells

protamine
delivery of siRNA into cells: cannot deliver siRNA
